Data as given in patent US8835472B2, “Compounds, pharmaceutical compositions and uses thereof” (Boehringer Ingelheim International GmbH, priority 2010, dated 2014).

Target: human ACC2 (Homo sapiens (Human), UniProt O00763)
Assay: ACC2 assay, spectrophotometric 384 well assay (NADH-linked, coupled lactate dehydrogenase/pyruvate kinase reaction)
Assay type: biochemical
Conditions: hACC2 construct lacking the 128 N-terminal amino acids; 25° C., 340 nm over 15 minutes
Summary of the method: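 N-terminally truncated human ACC2 (lacking 128 residues) expressed in insect cells; coupled PK/LDH read-out of ADP as NADH loss at 340 nm, 15 min, 25 °C. Tris pH 7.5 with citrate and KHCO3; 200 μM acetyl-CoA, 500 μM ATP, 1% DMSO.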

Sequence of human ACC2 (O00763 129-2458): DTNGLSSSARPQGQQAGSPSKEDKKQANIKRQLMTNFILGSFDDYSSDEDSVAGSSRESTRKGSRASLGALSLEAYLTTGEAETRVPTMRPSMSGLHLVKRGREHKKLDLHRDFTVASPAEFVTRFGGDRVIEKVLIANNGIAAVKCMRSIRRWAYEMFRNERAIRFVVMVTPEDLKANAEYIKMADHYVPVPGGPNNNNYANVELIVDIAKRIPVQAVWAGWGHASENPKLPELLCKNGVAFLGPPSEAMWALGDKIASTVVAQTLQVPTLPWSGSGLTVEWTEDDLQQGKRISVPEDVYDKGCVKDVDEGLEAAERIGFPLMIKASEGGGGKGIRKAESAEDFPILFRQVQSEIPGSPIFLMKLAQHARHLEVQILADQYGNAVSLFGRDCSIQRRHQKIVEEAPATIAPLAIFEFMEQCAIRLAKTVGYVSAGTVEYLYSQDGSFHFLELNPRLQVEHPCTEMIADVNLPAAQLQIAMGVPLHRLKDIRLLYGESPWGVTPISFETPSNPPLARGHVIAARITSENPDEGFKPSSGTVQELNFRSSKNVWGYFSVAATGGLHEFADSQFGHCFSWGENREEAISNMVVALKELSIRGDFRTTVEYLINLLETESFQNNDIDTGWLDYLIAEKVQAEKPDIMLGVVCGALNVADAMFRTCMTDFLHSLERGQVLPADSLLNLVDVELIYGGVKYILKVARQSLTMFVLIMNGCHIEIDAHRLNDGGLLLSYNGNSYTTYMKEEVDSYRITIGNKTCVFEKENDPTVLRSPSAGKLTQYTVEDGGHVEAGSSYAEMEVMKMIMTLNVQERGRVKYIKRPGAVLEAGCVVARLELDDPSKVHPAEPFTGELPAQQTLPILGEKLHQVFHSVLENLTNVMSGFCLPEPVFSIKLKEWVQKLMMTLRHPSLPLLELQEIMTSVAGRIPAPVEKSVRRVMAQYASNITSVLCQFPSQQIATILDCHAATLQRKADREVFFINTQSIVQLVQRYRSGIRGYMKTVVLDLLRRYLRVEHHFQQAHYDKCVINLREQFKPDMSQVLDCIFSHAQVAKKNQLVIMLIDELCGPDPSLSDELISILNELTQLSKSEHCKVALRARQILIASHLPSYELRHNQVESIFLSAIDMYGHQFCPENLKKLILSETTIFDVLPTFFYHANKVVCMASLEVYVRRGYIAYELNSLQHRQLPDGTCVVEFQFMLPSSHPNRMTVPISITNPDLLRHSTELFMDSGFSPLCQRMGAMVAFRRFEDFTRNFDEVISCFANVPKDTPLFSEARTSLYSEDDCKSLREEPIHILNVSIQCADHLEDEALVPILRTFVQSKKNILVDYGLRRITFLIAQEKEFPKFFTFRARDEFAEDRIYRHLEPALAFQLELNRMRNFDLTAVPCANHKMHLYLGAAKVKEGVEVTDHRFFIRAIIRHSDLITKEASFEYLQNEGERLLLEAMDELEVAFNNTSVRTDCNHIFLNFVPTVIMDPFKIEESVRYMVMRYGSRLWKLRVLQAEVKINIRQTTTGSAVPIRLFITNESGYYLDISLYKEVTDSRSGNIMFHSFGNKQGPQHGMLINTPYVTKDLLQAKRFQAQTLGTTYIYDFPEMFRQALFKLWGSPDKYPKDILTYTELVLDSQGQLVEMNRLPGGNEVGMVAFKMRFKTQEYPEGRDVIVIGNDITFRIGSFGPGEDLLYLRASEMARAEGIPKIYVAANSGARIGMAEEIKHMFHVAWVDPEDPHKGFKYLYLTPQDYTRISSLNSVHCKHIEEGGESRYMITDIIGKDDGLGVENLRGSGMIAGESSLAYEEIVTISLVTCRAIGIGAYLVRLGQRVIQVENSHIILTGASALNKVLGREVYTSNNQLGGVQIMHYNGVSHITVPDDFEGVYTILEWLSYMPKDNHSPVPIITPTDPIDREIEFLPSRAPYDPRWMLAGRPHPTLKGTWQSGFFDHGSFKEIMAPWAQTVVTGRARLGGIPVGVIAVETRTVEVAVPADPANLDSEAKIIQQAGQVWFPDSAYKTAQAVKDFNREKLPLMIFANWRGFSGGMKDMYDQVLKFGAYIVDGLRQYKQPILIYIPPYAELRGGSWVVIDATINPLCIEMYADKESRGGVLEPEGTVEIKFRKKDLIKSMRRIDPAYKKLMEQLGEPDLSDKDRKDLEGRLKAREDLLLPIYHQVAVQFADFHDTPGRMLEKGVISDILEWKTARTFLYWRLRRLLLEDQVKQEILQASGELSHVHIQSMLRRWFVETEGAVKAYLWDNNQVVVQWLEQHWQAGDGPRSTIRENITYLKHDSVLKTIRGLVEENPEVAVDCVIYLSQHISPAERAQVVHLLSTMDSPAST

SMILES | IC50
CCCOc1ccc(C#Cc2ccc(CC(C)(C)NC(C)=O)cc2)cc1 [Example 35.1, N-(1,1-Dimethyl-2-(4-(4-propoxyphenylethynyl)-phenyl)-ethyl)-acetamide] | 70 nM
CCOc1ccc(C#Cc2ccc(CC(C)NC(=O)C3CC3)cc2)cc1 (stereo not shown) [Example 4.4] | 150 nM
CCC(CC)Oc1cccc(C#Cc2ccc(CC(C)NC(C)=O)cc2)c1 (stereo not shown) [Example 9.8] | 810 nM
CC(Cc1ccc(C#Cc2cnc(OC(C)C)nc2)cc1)NC(=O)C1CC1 (stereo not shown) [Example 12.25] | 2400 nM
CC(=O)NC(C)(C)c1ccc(C#Cc2ccnc(OC(C)C)c2)cc1 [Example 2.38] | 10100 nM
CC(=O)N[C@@H](C)c1ccc(C#Cc2cnc(OC3CCC3)nc2)cc1 [Example 12.62] | 240 nM
CCOc1ccc(C#Cc2ccc(CC(C)NC(=O)CCC#N)cc2)cc1 (stereo not shown) [Example 4.13] | 680 nM
CCN(CC)CCOc1ccc(C#Cc2ccc(CC(C)NC(C)=O)cc2)cc1 (stereo not shown) [Example 9.18] | 14900 nM
CC(=O)NC(C)Cc1ccc(C#Cc2cnc(NCC3CC3)nc2)cc1 (stereo not shown) [Example 13.10] | 450 nM
CC(CNC(=O)N(C)C)c1ccc(C#Cc2cnc(OC3CCC3)nc2)cc1 (stereo not shown) [Example 33.2] | 130 nM
CC(=O)NC(C)Cc1ccc(C#Cc2ccc(OCCC(F)(F)F)cc2)cc1 (stereo not shown) [Example 9.32] | 100 nM
CC(Cc1ccc(C#Cc2cnc(NC3CCCC3)nc2)cc1)NC(=O)C1CC1 (stereo not shown) [Example 13.47] | 600 nM
COc1ccccc1CNc1ncc(C#Cc2ccc(CC(C)NC(C)=O)cc2)cn1 (stereo not shown) [Example 13.80] | 480 nM
CC(=O)NC(C)Cc1ccc(C#Cc2ccc(C(=O)N(C)Cc3nc(C)oc3C)cc2)cc1 (stereo not shown) [Example 8.2] | 5600 nM
CC(=O)NC(C)Cc1ccc(C#Cc2cccc(C(=O)N(C)C3CCCC3)c2)cc1 (stereo not shown) [Example 8.33] | 2000 nM
CC(=O)NC(C)Cc1ccc(C#Cc2cnc(NCc3ncccn3)nc2)cc1 (stereo not shown) [Example 13.70] | 6800 nM
CC(=O)NC(C)Cc1ccc(C#Cc2cnc(-c3ccc(Cl)cc3)cn2)cc1 (stereo not shown) [Example 1.14] | 200 nM
CC(=O)NC(C)Cc1ccc(C#Cc2cnc(Oc3cccc(F)c3)nc2)cc1 (stereo not shown) [Example 12.47] | 130 nM
CC(=O)NC(C)Cc1ccc(C#Cc2ccc(OCc3cnco3)cc2)cc1 (stereo not shown) [Example 9.41] | 500 nM
CCCOc1ccc(C#Cc2ccc([C@H](C)NC(C)=O)cc2)cc1 [Example 14.23] | 140 nM
CCCOc1ccc(C#Cc2ccc(C(C)CNC(=O)C3CC3)cc2)cc1 (stereo not shown) [Example 32.2] | 200 nM

SMILES | IC50
CC(=O)N[C@@H](C)c1ccc(C#Cc2ccc(OC3CCC3)cc2)cc1 [Example 14.7] | 70 nM
CC(=O)NC(C)c1ccc(C#Cc2cnn(Cc3ccccc3)c2)cc1 (stereo not shown) [Example 2.105] | 930 nM
CCCOc1ccc(C#Cc2ccc(CC(C)NC(C)=O)cc2)c(C#N)c1 (stereo not shown) [Example 2.92] | 170 nM
CC(=O)NC(C)Cc1ccc(C#Cc2ccc(C(=O)N3CCOCC3)cc2)cc1 (stereo not shown) [Example 1.10] | 5500 nM
CC(=O)NC(C)Cc1ccc(C#Cc2ccc(OC3CCOCC3)cc2)cc1 (stereo not shown) [Example 9.12] | 160 nM
CC(=O)NC(C)Cc1ccc(C#Cc2c(C)noc2C)cc1 (stereo not shown) [Example 2.106] | 8200 nM
CCNc1ncc(C#Cc2ccc(CC(C)NC(C)=O)cc2)cn1 (stereo not shown) [Example 13.13] | 230 nM
CCCNc1ncc(C#Cc2ccc(CC(C)NC(C)=O)cc2)cn1 (stereo not shown) [Example 13.2] | 210 nM
COC1CN(c2nccc(C#Cc3ccc(CC(C)NC(C)=O)cc3)n2)C1 (stereo not shown) [Example 11.34] | 13900 nM
CC(=O)NC(C)Cc1ccc(C#Cc2ccnc(OCC3CC3)n2)cc1 (stereo not shown) [Example 12.5] | 1600 nM
CC(=O)NC(C)Cc1ccc(C#Cc2ccc(C(=O)NCc3ccccc3)cc2)cc1 (stereo not shown) [Example 1.12] | 2300 nM
CCOc1cccc(C#Cc2ccc(CC(C)NC(=O)C3CC3)cc2)c1 (stereo not shown) [Example 14.52] | 3800 nM
CCOc1ccc(C#Cc2ccc(CC(C)N3CC(C)(C)C3=O)cc2)cc1 (stereo not shown) [19.1] | 1800 nM
CC(=O)NC(C)Cc1ccc(C#Cc2cnc(OC3Cc4ccccc4C3)nc2)cc1 (stereo not shown) [Example 12.52] | 430 nM
CC(=O)NC(C)Cc1ccc(C#Cc2cccc(C(=O)N(C)CC(=O)OC(C)(C)C)c2)cc1 (stereo not shown) [Example 8.47] | 12100 nM
CCOc1ccc(C#Cc2ccc(C(C)NC(=O)c3cncs3)cc2)cc1 (stereo not shown) [Example 4.53] | 370 nM
CCCOc1ncc(C#Cc2ccc(CC(C)NC(=O)OC)cc2)cn1 (stereo not shown) [Example 12.26] | 1000 nM
CCOc1ccc(C#Cc2ccc(CC(C)NC(C)=O)cc2)cn1 (stereo not shown) [Example 2.31] | 280 nM
CCOc1ccc(C#Cc2ccc(C(C)NC(=O)c3cocn3)cc2)cc1 (stereo not shown) [Example 4.54] | 30000 nM
CCCOc1ccc(C#Cc2ccc(C(C)(C)CNC(C)=O)cc2)cn1 [Example 2.35] | 130 nM
CC(=O)NC(C)Cc1ccc(C#Cc2cnc(OC3CCC3)nc2)cc1 (stereo not shown) [Example 12.12] | 90 nM

SMILES | IC50
CC(CNC(=O)CC#N)c1ccc(C#Cc2cnc(OC3CCC3)nc2)cc1 (stereo not shown) [Example 4.76] | 660 nM
CC(=O)NC(C)Cc1ccc(C#Cc2ccc3c(ccn3CCO)c2)cc1 (stereo not shown) [Example 1.25] | 5100 nM
COc1ccc(C#Cc2ccc(CC(C)NC(=O)C3CC3)cc2)cc1OC (stereo not shown) [Example 2.71] | 3400 nM
CCC(C)Nc1ncc(C#Cc2ccc(CC(C)NC(=O)OC)cc2)cn1 (stereo not shown) [Example 13.39] | 640 nM
CCCOc1ccc(C#Cc2ccc(C(C)CNC(=O)N(C)C)cc2)cc1 (stereo not shown) [Example 33.1, 1,1-Dimethyl-3-{2-[4-(4-propoxy-phenylethynyl)-phenyl]-propyl}-urea] | 160 nM
CC(=O)NC(C)Cc1ccc(C#Cc2cccc3ncccc23)cc1 (stereo not shown) [Example 2.4] | 3300 nM
CCCCOc1cc(C#Cc2ccc(CC(C)NC(C)=O)cc2)ccn1 (stereo not shown) [Example 2.96] | 130 nM
CCOc1ccc(C#Cc2ccc(CC(C)NC(=O)C3CC(=O)N(C)C3)cc2)cc1 (stereo not shown) [Example 4.62] | 3700 nM
CC(=O)NC(C)Cc1ccc(C#Cc2cccc(C(=O)N(C)c3ccccc3)c2)cc1 (stereo not shown) [Example 8.40] | 6700 nM
CC(=O)NC(C)Cc1ccc(C#Cc2ccc(C(=O)N3CCCC3)c(C)c2)cc1 (stereo not shown) [Example 1.18] | 990 nM
CCC(CC)Oc1ccc(C#Cc2ccc(CC(C)NC(C)=O)cc2)cc1 (stereo not shown) [Example 9.1, N-(1-(4-((4-(pentan-3yloxy)phenyl)ethynyl)phenyl)propan-2-yl)acetamide] | 220 nM
CC(=O)NC(C)Cc1ccc(C#Cc2ccc(OC(C)(C)C)cc2)cc1 (stereo not shown) [Example 2.75] | 100 nM
CC(=O)NC(C)Cc1ccc(C#Cc2cnc(N3CCC4(CCCC4)C3)nc2)cc1 (stereo not shown) [Example 13.73] | 280 nM
CCOc1ccc(C#Cc2ccc(CC(C)NC(=O)c3ccncc3)cc2)cc1 (stereo not shown) [Example 4.22] | 930 nM
CC(C)COc1ccc(C#Cc2ccc([C@H](C)NC(=O)C3CC3)cc2)cc1 [Example 14.48] | 580 nM
CCOc1ccc(C#Cc2ccc(C(C)NC(=O)Nc3ccc(N(C)C)cc3)cc2)cc1 (stereo not shown) [Example 6.1] | 30000 nM
CC(Cc1ccc(C#Cc2ccc(OC(C)(C)C)cc2)cc1)NC(=O)C1CC1 (stereo not shown) [Example 2.61] | 2000 nM
CC(=O)NC(C)Cc1ccc(C#Cc2cnc(Oc3ccccc3)nc2)cc1 (stereo not shown) [Example 12.16] | 170 nM
CC(=O)NC(C)Cc1ccc(C#Cc2ccc(N(C)C)cc2)cc1 (stereo not shown) [Example 1.19] | 1500 nM
